# Reference: ChEMBL document CHEMBL1151652, “Constituents of Erysimum inconspicuum. Two sulfur-containing lactone compounds” (1985)
# Tested on: KB
# Assay: Cytotoxicity against human KB cells
# Assay type: functional
# Conditions: read-out: ED50 (the source's name)
row,Structure (SMILES),EC50 [µg/mL]
1,CS(=O)(=O)CC[C@H]1CCC(=O)O1 [ERYSULFONE],21
2,C[S+]([O-])CC[C@H]1CCC(=O)O1 (stereo partly drawn) [ERYSULFOXIDE],2.3
3,C[C@]12CC[C@H]3[C@@H](CC[C@]4(O)C[C@@H](O)CC[C@]34C=O)[C@@]1(O)CC[C@@H]2C1=CC(=O)OC1 [STROPHANTHIDIN],0.44
